The source of these data is patent publication US20240148821A1, “PHARMACEUTICAL USE OF CYCLIC PEPTIDE COMPOUND” (CHUGAI SEIYAKU KABUSHIKI KAISHA, priority 2021, published 2024).

For experiment [1], the system named is Human pancreatic cancer cell line AsPC-1 (G12D mutation Kras). As to the kind of experiment: AsPC-1 cell growth inhibition (AsPC-1 CGI). Type of experiment: cell-based. The settings on record: read-out: AsPC-1 cell growth inhibition, 50% growth inhibitory concentration (IC50 value); 96 hours, CellTiter-Glo, values classified in ranges. (ATP-based viability assays read luminescence as a measure of living cells.)

The target of experiment [2] is protein-protein interaction between Kras and SOS1 (biotin-tagged human Kras loaded with GDP, His-tagged human SOS1) (Homo sapiens (Human), UniProt P01116, G12D). As to the kind of experiment: Protein-protein interaction inhibition between Kras and SOS1 (KrasG12D-SOS PPI) using AlphaScreen.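 Further: kras produced in E. coli, Ni-coupled donor beads and streptavidin acceptor beads, excitation 680 nm with emission detected at 520–620 nm via singlet oxygen transfer.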 Type of experiment: biochemical. Conditions: AlphaScreen; biotin-tagged human Kras loaded with GDP, His-tagged human SOS1; read-out: KRAS G12D-SOS PPI IC50. For orientation: Bead proximity is the source of the signal in Alpha formats.

Numbered stars: 1 amine (or outer) side, 2 acyl side, 3 side chain; on linkers, the order of the positions; unused ones are H or OH. Bridge positions count the residues as written; N and C are the ends. Square brackets hold non-standard residues; d marks the D form. Peptide text beside a SMILES is read from it. * marks the point of attachment. hPhe(3-Cl-4-CF3) = N[C@@H](CCc1ccc(C(F)(F)F)c(Cl)c1)C(=O)O; hPhe(3-F,4-CF3) = N[C@@H](CCc1ccc(C(F)(F)F)c(F)c1)C(=O)O; NMePhe(4-CF3) = CN[C@@H](Cc1ccc(C(F)(F)F)cc1)C(=O)O; NEtPhe(4-Me) = CCN[C@@H](Cc1ccc(C)cc1)C(=O)O; NMePhe(4-Cl) = CN[C@@H](Cc1ccc(Cl)cc1)C(=O)O; NMePhe(4-Me) = CN[C@@H](Cc1ccc(C)cc1)C(=O)O; NMedβ3hAla = C[C@H](CC(=O)[*:2])N(C)[*:1]; NMeGly(cPent) = CN[C@H](C(=O)O)C1CCCC1; NMe3Pal = CN[C@@H](Cc1cccnc1)C(=O)O; NMeCha = CN[C@@H](CC1CCCCC1)C(=O)O; NMeAhp(2) = CCCCC[C@H](NC)C(=O)O; NMeChg = CN[C@H](C(=O)O)C1CCCCC1; NMeI = CC[C@H](C)[C@H](NC)C(=O)O; Gly(cPr) = N[C@H](C(=O)O)C1CC1; NMeD = CN[C@@H](CC(=O)O)C(=O)O; NMeL = CN[C@@H](CC(C)C)C(=O)O; Chg = N[C@H](C(=O)O)C1CCCCC1; NMeV = CN[C@H](C(=O)O)C(C)C; NMeC = CN[C@@H](CS)C(=O)O; NMeS = CN[C@@H](CO)C(=O)O; NMeA = CN[C@@H](C)C(=O)O; NMeAib = CNC(C)(C)C(=O)O; Piperidide = C1CCN(*)CC1; Pyrrolidide = C1CCN(*)C1; Ac5c = NC1(C(=O)O)CCCC1; Aze = O=C(O)[C@@H]1CCN1; Sar = CNCC(=O)O; Propyl = CCC*

In the case of `CC(C)C[C@H]1C(=O)N[C@@H](C2CC2)C(=O)N(C)[C@@H](C)C(=O)N2CC[C@H]2C(=O)N(C)[C@@H](CC2CCCCC2)C(=O)N(C)CC(=O)N[C@@H](CCc2ccc(C(F)(F)F)c(Cl)c2)C(=O)N2CCC[C@H]2C(=O)NC2(CCCC2)C(=O)N(C)[C@@H](C(C)C)C(=O)N(C)[C@H](C(=O)N2CCCCC2)CC(=O)N1C` [Compound 280] ([NMeL][Gly(cPr)][NMeA][Aze][NMeCha][Sar][hPhe(3-Cl-4-CF3)]P[Ac5c][NMeV][NMeD]-Piperidide; lactam N-11), the IC50 is above 500 nM in experiment [1] and 24 nM in experiment [2].

Take `CCCOC[C@H]1C(=O)NC2(CCCC2)C(=O)N(C)[C@@H](C2CCCCC2)C(=O)N(C)[C@H](C(=O)N2CCCCC2)CC(=O)N(C)[C@@H](CC(C)C)C(=O)N[C@@H]([C@@H](C)CC)C(=O)N(C)CC(=O)N(C)CC(=O)N(C)[C@@H](CC2CCCCC2)C(=O)N(C)CC(=O)N[C@@H](CCc2ccc(C(F)(F)F)c(Cl)c2)C(=O)N1C` [Compound 692] ([NMeL]I[Sar][Sar][NMeCha][Sar][hPhe(3-Cl-4-CF3)][NMeS](Propyl)[Ac5c][NMeChg][NMeD]-Piperidide; lactam N-11): the IC50 is above 500 nM in experiment [1] and 6.9 nM in experiment [2].

Consider `CC[C@H](C)[C@@H]1NC(=O)[C@H](C)N(C)C(=O)C[C@@H](C(=O)N2CCCCC2)N(C)C(=O)[C@H](C(C)C)N(C)C(=O)C2(CCCC2)NC(=O)[C@H](Cc2cccnc2)N(C)C(=O)[C@H](CCc2ccc(C(F)(F)F)c(Cl)c2)NC(=O)CN(C)C(=O)[C@H](CC2CCCCC2)N(C)C(=O)CN(C)C(=O)CN(C)C1=O` [Compound 519] ([NMeA]I[Sar][Sar][NMeCha][Sar][hPhe(3-Cl-4-CF3)][NMe3Pal][Ac5c][NMeV][NMeD]-Piperidide; lactam N-11), for which the IC50 in experiment [1] is above 500 nM; in experiment [2], 2 nM.

`CC[C@H](C)[C@@H]1NC(=O)[C@H](CC(C)C)N(C)C(=O)C[C@@H](C(=O)N(C)C)N(C)C(=O)[C@H](C2CCCC2)N(C)C(=O)C2(CCCC2)NC(=O)[C@@H]2CCCN2C(=O)[C@H](CCc2ccc(C(F)(F)F)c(F)c2)NC(=O)CN(C)C(=O)[C@H](Cc2ccc(C)cc2)N(CC)C(=O)[C@@H]2CCN2C(=O)[C@H](C)N(C)C1=O` [Compound 1152] ([NMeL]I[NMeA][Aze][NEtPhe(4-Me)][Sar][hPhe(3-F,4-CF3)]P[Ac5c][NMeGly(cPent)][NMeD]-NMe2; lactam N-11): the figures for the IC50 in experiment [1] and in experiment [2] were at most 20 nM and 1.2 nM, respectively.

On to `CCCCC[C@H]1C(=O)N(C)[C@H](C(=O)N2CCCCC2)CC(=O)N(C)[C@@H](CC(C)C)C(=O)N[C@@H]([C@@H](C)CC)C(=O)N(C)[C@@H](C)C(=O)N2CC[C@H]2C(=O)N(C)[C@@H](CC2CCCCC2)C(=O)N(C)CC(=O)N[C@@H](CCc2ccc(C(F)(F)F)c(Cl)c2)C(=O)N2CCC[C@H]2C(=O)NC2(CCCC2)C(=O)N1C` [Compound 1707] ([NMeL]I[NMeA][Aze][NMeCha][Sar][hPhe(3-Cl-4-CF3)]P[Ac5c][NMeAhp(2)][NMeD]-Piperidide; lactam N-11), for which the values for the IC50 in experiment [1] and in experiment [2] were above 500 nM and 180 nM, respectively.

Take `CC[C@H](C)[C@@H]1NC(=O)[C@H](CC(C)C)N(C)C(=O)C[C@@H](C(=O)N2CCCCC2)N(C)C(=O)[C@H](C2CCCC2)N(C)C(=O)C2(CCCC2)NC(=O)[C@@H]2CCCN2C(=O)[C@H](CCc2ccc(C(F)(F)F)c(Cl)c2)NC(=O)CN(C)C(=O)[C@H](CC2CCCCC2)N(C)C(=O)[C@@H]2CCN2C(=O)[C@H](C)N(C)C1=O` [Compound 1787] ([NMeL]I[NMeA][Aze][NMeCha][Sar][hPhe(3-Cl-4-CF3)]P[Ac5c][NMeGly(cPent)][NMeD]-Piperidide; lactam N-11): the IC50 was at most 20 nM in experiment [1] and 1.1 nM in experiment [2].

`CC[C@H](C)[C@@H]1NC(=O)[C@H](CC(C)C)N(C)C(=O)CSC[C@@H](C(=O)N(C)C)N(C)C(=O)[C@H](C2CCCC2)N(C)C(=O)C2(CCCC2)NC(=O)[C@@H]2CCCN2C(=O)[C@H](CCc2ccc(C(F)(F)F)c(Cl)c2)NC(=O)CN(C)C(=O)[C@H](Cc2ccc(C)cc2)N(C)C(=O)[C@@H]2CCN2C(=O)[C@H](C)N(C)C1=O` [Compound 2177] ({CH2CO}-[NMeL]I[NMeA][Aze][NMePhe(4-Me)][Sar][hPhe(3-Cl-4-CF3)]P[Ac5c][NMeGly(cPent)][NMeC]-NMe2; thioether N-11): the values for the IC50 in experiment [1] and in experiment [2] were above 500 nM and 250 nM, respectively.

`CC[C@H](C)[C@@H]1NC(=O)[C@H](CC(C)C)N(C)C(=O)C[C@@H](C)N(C)C(=O)[C@H](C2CCCCC2)NC(=O)C(C)(C)N(C)C(=O)[C@H](CC(C)C)NC(=O)[C@H](CCc2ccc(C(F)(F)F)c(F)c2)NC(=O)CN(C)C(=O)[C@H](Cc2ccc(Cl)cc2)N(C)C(=O)CN(C)C(=O)CN(C)C1=O` [Compound 897] (cyclo([Chg][NMedβ3hAla][NMeL]I[Sar][Sar][NMePhe(4-Cl)][Sar][hPhe(3-F,4-CF3)]L[NMeAib])): the IC50 in experiment [1] was above 500 nM; in experiment [2], 150 nM.

Take `CCCOC[C@H]1C(=O)N(C)CC(=O)N[C@@H](CCc2ccc(C(F)(F)F)c(F)c2)C(=O)N2CCC[C@H]2C(=O)NC2(CCCC2)C(=O)N(C)[C@@H](C2CCCC2)C(=O)N(C)[C@H](C(=O)N(C)C)CSCC(=O)N(C)[C@@H](CC(C)C)C(=O)N[C@@H]([C@@H](C)CC)C(=O)N(C)[C@@H](C)C(=O)N2CC[C@H]2C(=O)N1C` [Compound 2174, (3S,9S,12S,17S,20S,23S,29R,32S,38S)-20-[(2S)-butan-2-yl]-32-cyclopentyl-3-[2-[3-fluoro-4-(trifluoromethyl)phenyl]ethyl]-N,N,7,10,17,18,24,30,33-nonamethyl-23-(2-methylpropyl)-2,5,8,11,16,19,22,25,31,34,37-undecaoxo-9-(propoxymethyl)spiro[27-thia-1,4,7,10,15,18,21,24,30,33,36-undecazatricyclo[36.3.0.012,15]hentetracontane-35,1′-cyclopentane)-29-carboxamide] ({CH2CO}-[NMeL]I[NMeA][Aze][NMeS](Propyl)[Sar][hPhe(3-F,4-CF3)]P[Ac5c][NMeGly(cPent)][NMeC]-NMe2; thioether N-11): the IC50 in experiment [1] was above 500 nM; in experiment [2] it was 870 nM.

Consider `CC[C@H](C)[C@@H]1NC(=O)[C@H](CC(C)C)N(C)C(=O)C[C@@H](C(=O)N2CCCC2)N(C)C(=O)[C@H]([C@@H](C)CC)N(C)C(=O)C2(CCCC2)NC(=O)[C@@H]2CCCN2C(=O)[C@H](CCc2ccc(C(F)(F)F)c(Cl)c2)NC(=O)CN(C)C(=O)[C@H](Cc2ccc(C)cc2)N(CC)C(=O)[C@@H]2CCN2C(=O)[C@H](C)N(C)C1=O` [Compound 1325] ([NMeL]I[NMeA][Aze][NEtPhe(4-Me)][Sar][hPhe(3-Cl-4-CF3)]P[Ac5c][NMeI][NMeD]-Pyrrolidide; lactam N-11), for which the IC50 is at most 20 nM in experiment [1] and 0.96 nM in experiment [2].

Regarding `CCCCC[C@H]1C(=O)N[C@@H]([C@@H](C)CC)C(=O)N[C@@H](C)C(=O)N2CC[C@H]2C(=O)N(C)[C@@H](Cc2ccc(C(F)(F)F)cc2)C(=O)N(C)CC(=O)N[C@@H](CCc2ccc(C(F)(F)F)c(Cl)c2)C(=O)N2CCC[C@H]2C(=O)NC2(CCCC2)C(=O)N(C)[C@@H]([C@@H](C)CC)C(=O)N(C)[C@H](C(=O)N2CCCC2)CC(=O)N1C` [Compound 209] ([NMeAhp(2)]IA[Aze][NMePhe(4-CF3)][Sar][hPhe(3-Cl-4-CF3)]P[Ac5c][NMeI][NMeD]-Pyrrolidide; lactam N-11), the values for the IC50 in experiment [1] and in experiment [2] were at most 20 nM and 1.6 nM, respectively.
